Laboratory results taken from PMC3626541, “A first in human, safety, pharmacokinetics, and clinical activity phase I study of once weekly administration of the Hsp90 inhibitor ganetespib (STA-9090) in patients with solid malignancies” (BMC Cancer, 2013).

Test system: patients with advanced solid tumors
Assay: Safety: adverse events (NCI CTCAE v3.0), ECG
Assay type: in vivo, human
Protocol: Patients’ demographics and medical history were recorded at baseline. Physical examination and PS were assessed at baseline and on Day 1 of each cycle. Adverse events (AEs), vital signs, hematology and chemistry values, and creatinine clearance were assessed at baseline and weekly during treatment. Toxicity was graded using National Cancer Institute Common Terminology Criteria for Adverse Events (NCI CTCAE), version 3.0. An electrocardiogram (ECG) was performed at baseline, before and after treatment on Days 1 and 15 of Cycles 1 and 2, and on Day 15 of even-numbered cycles thereafter. CT scans were done at baseline and every 8 weeks thereafter. Tumor response was assessed using Response Evaluation Criteria in Solid Tumors (RECIST, v1.0), with confirmation of responses performed at least 4 weeks later.

[1] = Cycle 1 Day 1 post-dose, patients with QTc prolongation
[2] = repeat ECG later on the same day

CC(C)c1cc(-c2n[nH]c(=O)n2-c2ccc3c(ccn3C)c2)c(O)cc1O [Ganetespib, 5-[2,4-dihydroxy-5-(1 methyl-ethyl)phenyl]-2,4 dihydro-4-(1-methyl-1H indol-5 yl)-3H-1,2,4 triazole-3-one]
Constipation, AE of any grade, Number (%) of patients (150-216 mg/m^2, n = 22): 3 (13.6) n (%)
Decreased appetite, AE of any grade, Number (%) of patients (150-216 mg/m^2, n = 22): 8 (36.4) n (%)
Dehydration, AE of any grade, Number (%) of patients (150-216 mg/m^2, n = 22): 3 (13.6) n (%)
Dehydration, CTCAE Grade 3 and 4 AE, Number (%) of patients (150-216 mg/m^2, n = 22): 1 (4.5) n (%)
Dehydration, serious adverse events, Number (%) of patients (150-216 mg/m^2, n = 22): 1 (4.5) n (%)
Diarrhea, AE of any grade, Number (%) of patients (150-216 mg/m^2, n = 22): 21 (95.5) n (%)
Diarrhea, CTCAE Grade 3 and 4 AE, Number (%) of patients (150-216 mg/m^2, n = 22): 2 (9.1) n (%)
Dizziness, AE of any grade, Number (%) of patients (150-216 mg/m^2, n = 22): 3 (13.6) n (%)
Dry mouth, AE of any grade, Number (%) of patients (150-216 mg/m^2, n = 22): 3 (13.6) n (%)
Dyspnea, AE of any grade, Number (%) of patients (150-216 mg/m^2, n = 22): 4 (18.2) n (%)
Extremity pain, AE of any grade, Number (%) of patients (150-216 mg/m^2, n = 22): 1 (4.5) n (%)
Fatigue, AE of any grade, Number (%) of patients (150-216 mg/m^2, n = 22): 13 (59.1) n (%)
Fatigue, CTCAE Grade 3 and 4 AE, Number (%) of patients (150-216 mg/m^2, n = 22): 4 (18.2) n (%)
Headache, AE of any grade, Number (%) of patients (150-216 mg/m^2, n = 22): 6 (27.3) n (%)
Hyperbilirubinemia, CTCAE Grade 3 and 4 AE, Number (%) of patients (150-216 mg/m^2, n = 22): 2 (9.1) n (%)
Hypokalemia, AE of any grade, Number (%) of patients (150-216 mg/m^2, n = 22): 4 (18.2) n (%)
Hypokalemia, CTCAE Grade 3 and 4 AE, Number (%) of patients (150-216 mg/m^2, n = 22): 2 (9.1) n (%)
Hyponatremia, CTCAE Grade 3 and 4 AE, Number (%) of patients (150-216 mg/m^2, n = 22): 0 n (%)
Hypophosphatemia, AE of any grade, Number (%) of patients (150-216 mg/m^2, n = 22): 2 (9.1) n (%)
Hypophosphatemia, CTCAE Grade 3 and 4 AE, Number (%) of patients (150-216 mg/m^2, n = 22): 2 (9.1) n (%)
Insomnia, AE of any grade, Number (%) of patients (150-216 mg/m^2, n = 22): 6 (27.3) n (%)
Musculoskeletal chest pain, AE of any grade, Number (%) of patients (150-216 mg/m^2, n = 22): 4 (18.2) n (%)
Nausea, AE of any grade, Number (%) of patients (150-216 mg/m^2, n = 22): 7 (31.8) n (%)
Peripheral edema, AE of any grade, Number (%) of patients (150-216 mg/m^2, n = 22): 5 (22.7) n (%)
Pneumonia, serious adverse events, Number (%) of patients (150-216 mg/m^2, n = 22): 1 (4.5) n (%)
Rash, AE of any grade, Number (%) of patients (150-216 mg/m^2, n = 22): 1 (4.5) n (%)
Serum amylase elevated, CTCAE Grade 3 and 4 AE, Number (%) of patients (150-216 mg/m^2, n = 22): 1 (4.5) n (%)
Spinal cord compression, CTCAE Grade 3 and 4 AE, Number (%) of patients (150-216 mg/m^2, n = 22): 0 n (%)
Urinary tract infection, AE of any grade, Number (%) of patients (150-216 mg/m^2, n = 22): 3 (13.6) n (%)
Vomiting, AE of any grade, Number (%) of patients (150-216 mg/m^2, n = 22): 3 (13.6) n (%)
Weight decreased, AE of any grade, Number (%) of patients (150-216 mg/m^2, n = 22): 5 (22.7) n (%)
ALT elevated, AE of any grade, Number (%) of patients (150-216 mg/m^2, n = 22, first of two ALT elevated lines): 5 (22.7) n (%)
ALT elevated, AE of any grade, Number (%) of patients (150-216 mg/m^2, n = 22, second of two ALT elevated lines): 3 (13.6) n (%)
Incidence of diarrhea (150–216 mg/m^2 dose levels): 95.5%
Incidence of fatigue (150–216 mg/m^2 dose levels): 59.1%
ALT elevation, CTCAE Grade 3 and 4 AE, Number (%) of patients (All patients, n = 53): 3 (5.7) n (%)
AST elevated, AE of any grade, Number (%) of patients (All patients, n = 53): 9 (17) n (%)
Abdominal distension, AE of any grade, Number (%) of patients (All patients, n = 53): 6 (11.3) n (%)
Abdominal pain, AE of any grade, Number (%) of patients (All patients, n = 53): 20 (37.7) n (%)
Abdominal pain, serious adverse events, Number (%) of patients (All patients, n = 53): 2 (3.8) n (%)
Anemia, AE of any grade, Number (%) of patients (All patients, n = 53): 16 (30.2) n (%)
Any event, AE of any grade, Number (%) of patients (All patients, n = 53): 53 (100) n (%)
Any event, CTCAE Grade 3 and 4 AE, Number (%) of patients (All patients, n = 53): 36 (67.9) n (%)
Any event, serious adverse events, Number (%) of patients (All patients, n = 53): 15 (28.3) n (%)
Arthralgia, CTCAE Grade 3 and 4 AE, Number (%) of patients (All patients, n = 53): 2 (3.8) n (%)
Asthenia, AE of any grade, Number (%) of patients (All patients, n = 53): 8 (15.1) n (%)
Asthenia, CTCAE Grade 3 and 4 AE, Number (%) of patients (All patients, n = 53): 4 (7.5) n (%)
Asthenia, serious adverse events, Number (%) of patients (All patients, n = 53): 2 (3.8) n (%)
Back pain, AE of any grade, Number (%) of patients (All patients, n = 53): 8 (15.1) n (%)
Constipation, AE of any grade, Number (%) of patients (All patients, n = 53): 9 (17) n (%)
Decreased appetite, AE of any grade, Number (%) of patients (All patients, n = 53): 11 (20.8) n (%)
Dehydration, AE of any grade, Number (%) of patients (All patients, n = 53): 7 (13.2) n (%)
Dehydration, CTCAE Grade 3 and 4 AE, Number (%) of patients (All patients, n = 53): 3 (5.7) n (%)
Dehydration, serious adverse events, Number (%) of patients (All patients, n = 53): 2 (3.8) n (%)
Diarrhea, AE of any grade, Number (%) of patients (All patients, n = 53): 47 (88.7) n (%)
Diarrhea, CTCAE Grade 3 and 4 AE, Number (%) of patients (All patients, n = 53): 4 (7.5) n (%)
Dizziness, AE of any grade, Number (%) of patients (All patients, n = 53): 6 (11.3) n (%)
Dry mouth, AE of any grade, Number (%) of patients (All patients, n = 53): 6 (11.3) n (%)
Dyspnea, AE of any grade, Number (%) of patients (All patients, n = 53): 9 (17) n (%)
Extremity pain, AE of any grade, Number (%) of patients (All patients, n = 53): 6 (11.3) n (%)
Fatigue, AE of any grade, Number (%) of patients (All patients, n = 53): 30 (56.6) n (%)
Fatigue, CTCAE Grade 3 and 4 AE, Number (%) of patients (All patients, n = 53): 6 (11.3) n (%)
Headache, AE of any grade, Number (%) of patients (All patients, n = 53): 9 (17) n (%)
Hyperbilirubinemia, CTCAE Grade 3 and 4 AE, Number (%) of patients (All patients, n = 53): 3 (5.7) n (%)
Hypokalemia, AE of any grade, Number (%) of patients (All patients, n = 53): 7 (13.2) n (%)
Hypokalemia, CTCAE Grade 3 and 4 AE, Number (%) of patients (All patients, n = 53): 2 (3.8) n (%)
Hyponatremia, CTCAE Grade 3 and 4 AE, Number (%) of patients (All patients, n = 53): 3 (5.7) n (%)
Hypophosphatemia, AE of any grade, Number (%) of patients (All patients, n = 53): 7 (13.2) n (%)
Hypophosphatemia, CTCAE Grade 3 and 4 AE, Number (%) of patients (All patients, n = 53): 4 (7.5) n (%)
Insomnia, AE of any grade, Number (%) of patients (All patients, n = 53): 10 (18.9) n (%)
Musculoskeletal chest pain, AE of any grade, Number (%) of patients (All patients, n = 53): 6 (11.3) n (%)
Nausea, AE of any grade, Number (%) of patients (All patients, n = 53): 18 (34) n (%)
Peripheral edema, AE of any grade, Number (%) of patients (All patients, n = 53): 9 (17) n (%)
Pneumonia, serious adverse events, Number (%) of patients (All patients, n = 53): 2 (3.8) n (%)
Rash, AE of any grade, Number (%) of patients (All patients, n = 53): 6 (11.3) n (%)
Serum amylase elevated, CTCAE Grade 3 and 4 AE, Number (%) of patients (All patients, n = 53): 2 (3.8) n (%)
Spinal cord compression, CTCAE Grade 3 and 4 AE, Number (%) of patients (All patients, n = 53): 2 (3.8) n (%)
Urinary tract infection, AE of any grade, Number (%) of patients (All patients, n = 53): 8 (15.1) n (%)
Vomiting, AE of any grade, Number (%) of patients (All patients, n = 53): 10 (18.9) n (%)
Weight decreased, AE of any grade, Number (%) of patients (All patients, n = 53): 7 (13.2) n (%)
ALT elevated, AE of any grade, Number (%) of patients (All patients, n = 53, first of two ALT elevated lines): 10 (18.9) n (%)
ALT elevated, AE of any grade, Number (%) of patients (All patients, n = 53, second of two ALT elevated lines): 6 (11.3) n (%)
QT [1]: 438 ms
QTc (QT with Bazett correction) [1]: 457 ms
Patients with dose reduction (all 53 patients): 7.5%
Patients with dose reduction and delay (all 53 patients): 7.5%
Patients with missed dose (all 53 patients): 30.2%
Patients with dose modification (all 53 patients, mainly due to adverse events): 45.3%
Patients who discontinued treatment due to drug-unrelated adverse events (all in cohort 1): 5.7%
Patients with Grade 3 or 4 AE (all patients): 67.9%
Patients with Grade 3 or 4 fatigue (all patients): 11.3%
Patients with diarrhea, Grade 1 and 2 (all patients): 88.7%
Patients with fatigue, Grade 1 and 2 (all patients): 56.6%
Patients with onset of diarrhea between days 1–7 (all patients): 75.5%
Patients with transient ALP elevation (all patients): 18.9%
Patients with transient ALT elevation (all patients): 11.3%
Patients with transient AST elevation (all patients): 17%
Patients with treatment-related anemia (all patients): 5.7%
Patients with treatment-related neutropenia (all patients): 5.7%
Patients with visual changes (all patients, mild and transient): 15%
Patients with abdominal pain (all patients, mild to moderate): 37.7%
Patients with nausea (all patients, mild to moderate): 34%
Patients with vomiting (all patients, mild to moderate): 18.9%
Patients with on-treatment SAEs (all patients, none considered treatment-related): 28.3%
Patients with Grade 2 or 3 hyberbilirubinemia (all patients, not considered study drug-related): 7.5%
Patients with Grade 1 or 2 blurred vision (doses of 35 mg/m^2, 114 mg/m^2 and 150 mg/m^2): Three patients
Patients with QTc prolongation (higher dose levels, Cycle 1 Day 1 post-dose): Three patients
Patients with treatment-related visual impairment (mild and transient): Two patients
Deaths during the study (none deemed treatment-related): Three deaths
Patients with QTc changes (not symptomatic, not considered clinically meaningful): 91%
Patients with Grade 1 transient visual impairment (one each at 216 and 259 mg/m^2, possibly related to study drug): 2 patients
QT [2]: 414 ms
QTc [2]: 433 ms
